Experimental data as given in US11427558B1, “Indazoles and azaindazoles as LRRK2 inhibitors” (ESCAPE Bio, Inc., priority 2019, dated 2022).

How the values were obtained:
[1] = biological target: Recombinant wild type LRRK2 protein (Homo sapiens (Human), UniProt Q5S007); assay: LRRK2 kinase activity, LanthaScreen TR-FRET assay (wild type); assay type: biochemical; conditions: LRRKtide 400 nM, 25 μM ATP, 60 min; read-out: LRRK2 WT IC50
Summary of the method: (§1)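 Recombinant human wild-type or G2019S LRRK2 phosphorylated fluorescein-labelled LRRKtide (ERM-based) with ATP and serially diluted compound for 60 min at room temperature.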

[2] = biological target: Recombinant G2019S-LRRK2 protein (Homo sapiens (Human), UniProt Q5S007, G2019S); assay: LRRK2 kinase activity, LanthaScreen TR-FRET assay (G2019S); assay type: biochemical; conditions: LRRKtide 400 nM, 25 μM ATP, 60 min
Summary of the method: as §1

Recombinant G2019S-LRRK2 protein, sequence (Q5S007 whole entry G2019S): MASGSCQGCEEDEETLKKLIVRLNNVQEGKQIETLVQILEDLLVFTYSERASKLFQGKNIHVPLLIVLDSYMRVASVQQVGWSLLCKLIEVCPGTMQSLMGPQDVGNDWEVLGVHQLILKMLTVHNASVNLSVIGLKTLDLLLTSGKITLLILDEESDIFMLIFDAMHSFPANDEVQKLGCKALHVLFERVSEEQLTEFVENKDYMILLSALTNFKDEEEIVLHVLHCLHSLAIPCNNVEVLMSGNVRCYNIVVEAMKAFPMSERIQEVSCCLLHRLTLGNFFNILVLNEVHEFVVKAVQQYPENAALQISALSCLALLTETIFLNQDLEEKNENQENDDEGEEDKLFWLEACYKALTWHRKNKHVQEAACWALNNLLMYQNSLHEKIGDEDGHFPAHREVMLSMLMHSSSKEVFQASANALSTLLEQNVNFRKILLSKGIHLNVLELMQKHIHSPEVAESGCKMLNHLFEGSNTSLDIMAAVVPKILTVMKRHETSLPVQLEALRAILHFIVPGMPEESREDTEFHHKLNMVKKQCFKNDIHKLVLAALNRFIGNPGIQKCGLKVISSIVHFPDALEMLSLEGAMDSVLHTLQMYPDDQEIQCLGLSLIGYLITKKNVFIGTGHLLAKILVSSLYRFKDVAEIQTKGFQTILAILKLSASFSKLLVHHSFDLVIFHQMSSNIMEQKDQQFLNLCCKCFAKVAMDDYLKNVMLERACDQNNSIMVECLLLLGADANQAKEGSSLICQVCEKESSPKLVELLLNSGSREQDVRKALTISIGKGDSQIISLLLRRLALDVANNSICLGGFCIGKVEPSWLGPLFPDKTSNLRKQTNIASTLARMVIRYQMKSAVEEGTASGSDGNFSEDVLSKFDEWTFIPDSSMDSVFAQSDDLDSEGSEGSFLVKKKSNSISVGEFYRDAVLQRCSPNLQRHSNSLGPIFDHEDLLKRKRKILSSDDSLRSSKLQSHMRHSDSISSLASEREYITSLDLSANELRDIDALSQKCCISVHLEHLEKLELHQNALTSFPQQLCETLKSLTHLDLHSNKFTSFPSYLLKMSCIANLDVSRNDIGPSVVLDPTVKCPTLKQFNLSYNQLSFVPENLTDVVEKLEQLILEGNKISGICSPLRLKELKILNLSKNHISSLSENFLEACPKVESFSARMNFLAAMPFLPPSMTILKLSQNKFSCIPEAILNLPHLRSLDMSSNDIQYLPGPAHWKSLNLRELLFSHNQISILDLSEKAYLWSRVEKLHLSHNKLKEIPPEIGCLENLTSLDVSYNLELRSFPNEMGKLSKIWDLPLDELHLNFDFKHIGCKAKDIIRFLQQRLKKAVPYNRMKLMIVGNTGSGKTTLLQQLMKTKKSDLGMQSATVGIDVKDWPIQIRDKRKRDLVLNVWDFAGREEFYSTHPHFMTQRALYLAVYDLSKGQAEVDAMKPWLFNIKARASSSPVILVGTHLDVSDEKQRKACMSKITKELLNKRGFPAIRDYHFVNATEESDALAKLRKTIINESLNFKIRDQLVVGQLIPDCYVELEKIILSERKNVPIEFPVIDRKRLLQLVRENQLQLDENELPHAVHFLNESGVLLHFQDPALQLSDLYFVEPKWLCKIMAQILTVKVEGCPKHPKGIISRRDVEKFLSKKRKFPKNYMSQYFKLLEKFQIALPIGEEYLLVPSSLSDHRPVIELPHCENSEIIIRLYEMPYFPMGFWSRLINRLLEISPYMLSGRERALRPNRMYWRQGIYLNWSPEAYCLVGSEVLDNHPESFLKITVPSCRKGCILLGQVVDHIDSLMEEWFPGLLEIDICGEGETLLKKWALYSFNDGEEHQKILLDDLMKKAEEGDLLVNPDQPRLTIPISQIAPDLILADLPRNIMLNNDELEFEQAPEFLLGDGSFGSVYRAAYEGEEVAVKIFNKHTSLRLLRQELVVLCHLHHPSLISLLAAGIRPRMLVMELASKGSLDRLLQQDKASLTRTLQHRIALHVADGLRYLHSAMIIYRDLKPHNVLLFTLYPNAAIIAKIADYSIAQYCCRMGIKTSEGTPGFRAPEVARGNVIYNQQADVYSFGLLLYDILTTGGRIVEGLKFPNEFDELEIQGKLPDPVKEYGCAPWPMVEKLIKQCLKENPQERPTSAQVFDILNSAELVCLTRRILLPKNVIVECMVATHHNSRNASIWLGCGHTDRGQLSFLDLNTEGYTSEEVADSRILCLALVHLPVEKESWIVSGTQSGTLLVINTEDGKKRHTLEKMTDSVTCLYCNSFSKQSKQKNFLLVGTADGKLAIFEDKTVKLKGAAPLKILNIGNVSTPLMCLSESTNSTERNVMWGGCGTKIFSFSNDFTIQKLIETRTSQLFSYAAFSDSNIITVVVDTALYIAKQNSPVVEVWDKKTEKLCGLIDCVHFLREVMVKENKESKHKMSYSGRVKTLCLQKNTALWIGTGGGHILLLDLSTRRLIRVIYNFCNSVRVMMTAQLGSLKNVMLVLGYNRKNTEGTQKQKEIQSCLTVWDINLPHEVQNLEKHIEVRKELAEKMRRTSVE
Recombinant wild type LRRK2 protein, sequence (Q5S007 whole entry): as the sequence (Q5S007 whole entry G2019S) above, with S2019G counted along it

SMILES | IC50 [1] | IC50 [2]
Cc1c(C(=O)Nc2ccc3[nH]nc(C#N)c3c2)nc(Cl)c(C#N)c1C [Example 290, 6-Chloro-5-cyano-N-(3-cyano-1H-indazol-5-yl)-3,4-dimethylpicolinamide] | < 0.1 µM | < 0.1 µM
Cc1c(C(=O)Nc2ccc3[nH]nc(C(F)F)c3c2)nc(Cl)c(C#N)c1C [Example 291, 6-Chloro-5-cyano-N-(3-(difluoromethyl)-1H-indazol-5-yl)-3,4-dimethylpicolinamide] | < 0.1 µM | < 0.1 µM
Cc1c(C#N)cnc(C(=O)Nc2ccc3[nH]nc(C(F)F)c3c2)c1C [Example 292, 5-Cyano-N-(3-(difluoromethyl)-1H-indazol-5-yl)-3,4-dimethylpicolinamide] | 1 to 10 µM | 0.1 to 1 µM
Cc1c(C(=O)Nc2ccc3[nH]nc(C(F)(F)F)c3c2)nc(Cl)c(C#N)c1C [Example 293, 6-Chloro-5-cyano-3,4-dimethyl-N-(3-(trifluoromethyl)-1H-indazol-5-yl)picolinamide] | < 0.1 µM | < 0.1 µM
Cc1n[nH]c2ccc(NC(=O)c3ncc(C#N)cc3C(C)C)cc12 [Example 294, 5-Cyano-3-isopropyl-N-(3-methyl-1H-indazol-5-yl)picolinamide] | 1 to 10 µM | 0.1 to 1 µM
Cc1n[nH]c2ccc(NC(=O)c3cccc(C#N)c3C(C)C)cc12 [Example 295, 3-Cyano-2-isopropyl-N-(3-methyl-1H-indazol-5-yl)benzamide] | 0.1 to 1 µM | < 0.1 µM
Cc1c(C(=O)Nc2ccc3[nH]nc(S(C)(=O)=O)c3c2)nc(Cl)c(C#N)c1C [Example 296, 6-Chloro-5-cyano-3,4-dimethyl-N-(3-(methylsulfonyl)-1H-indazol-5-yl)picolinamide] | 0.1 to 1 µM | < 0.1 µM
Cc1c(C#N)cnc(C(=O)Nc2ccc3[nH]nc(C)c3c2)c1C [Example 297, 5-Cyano-3,4-dimethyl-N-(3-methyl-1H-indazol-5-yl)picolinamide] | 0.1 to 1 µM | < 0.1 µM
Cc1c(C(=O)Nc2ccc3[nH]nc(C)c3c2)nc(Cl)c(C#N)c1C [Example 298, 6-Chloro-5-cyano-3,4-dimethyl-N-(3-methyl-1H-indazol-5-yl)picolinamide] | < 0.1 µM | < 0.1 µM
COc1c(C#N)ccc(C)c1C(=O)Nc1ccc2[nH]nc(C)c2c1 [Example 299, 3-Cyano-2-methoxy-6-methyl-N-(3-methyl-1H-indazol-5-yl)benzamide] | 0.1 to 1 µM | < 0.1 µM
Cc1c(C#N)cnc(C(=O)Nc2ccc3[nH]nc(Br)c3c2)c1C [Example 300, N-(3-Bromo-1H-indazol-5-yl)-5-cyano-3,4-dimethylpicolinamide] | 0.1 to 1 µM | < 0.1 µM
Cc1c(C#N)cnc(C(=O)Nc2ccc3[nH]nc(Cl)c3c2)c1C [Example 301, N-(3-Chloro-1H-indazol-5-yl)-5-cyano-3,4-dimethylpicolinamide] | 1 to 10 µM | < 0.1 µM
Cc1c(C(=O)Nc2ccc3[nH]nc(C)c3c2)nc(Br)c(C#N)c1C [Example 302, 6-Bromo-5-cyano-3,4-dimethyl-N-(3-methyl-1H-indazol-5-yl)picolinamide] | < 0.1 µM | < 0.1 µM
Cc1c(C(=O)Nc2ccc3[nH]nc(C4CC4)c3c2)nc(Cl)c(C#N)c1C [Example 303, 6-Chloro-5-cyano-N-(3-cyclopropyl-1H-indazol-5-yl)-3,4-dimethylpicolinamide] | < 0.1 µM | < 0.1 µM
COc1nc(C(=O)Nc2ccc3[nH]nc(C4CC4)c3c2)c(C)c(C)c1C#N [Example 304, 5-Cyano-N-(3-cyclopropyl-1H-indazol-5-yl)-6-methoxy-3,4-dimethylpicolinamide] | < 0.1 µM | < 0.1 µM
Cc1nc(C(=O)Nc2ccc3[nH]nc(C4CC4)c3c2)c(C)c(C)c1C#N [Example 305, 5-Cyano-N-(3-cyclopropyl-1H-indazol-5-yl)-3,4,6-trimethylpicolinamide] | 0.1 to 1 µM | < 0.1 µM
Cc1c(C(=O)Nc2ccc3[nH]nc(C)c3c2)ncc(C#N)c1Cl [Example 306, 4-Chloro-5-cyano-3-methyl-N-(3-methyl-1H-indazol-5-yl)picolinamide] | 0.1 to 1 µM | < 0.1 µM
Cc1cc(C#N)c(Cl)nc1C(=O)Nc1ccc2[nH]nc(C)c2c1 [Example 307, 6-Chloro-5-cyano-3-methyl-N-(3-methyl-1H-indazol-5-yl)picolinamide] | 0.1 to 1 µM | < 0.1 µM
COc1n[nH]c2ccc(NC(=O)c3nc(Cl)c(C#N)c(C)c3C)cc12 [Example 308, 6-Chloro-5-cyano-N-(3-methoxy-1H-indazol-5-yl)-3,4-dimethylpicolinamide] | < 0.1 µM | < 0.1 µM
N#Cc1cnc(C(=O)Nc2ccc3[nH]nc(-c4cnoc4)c3c2)c(Cl)c1 [Example 309, 3-Chloro-5-cyano-N-(3-(isoxazol-4-yl)-1H-indazol-5-yl)picolinamide] | < 0.1 µM | < 0.1 µM

SMILES | IC50 [1] | IC50 [2]
N#Cc1cnc(C(=O)Nc2ccc3[nH]nc(-c4cnoc4)c3c2)c(C2CC2)c1 [Example 310, 5-Cyano-3-cyclopropyl-N-(3-(isoxazol-4-yl)-1H-indazol-5-yl)picolinamide] | 0.1 to 1 µM | < 0.1 µM
COc1cccc(-c2n[nH]c3ccc(NC(=O)c4ncc(C#N)cc4C4CC4)cc23)c1 [Example 311, 5-Cyano-3-cyclopropyl-N-(3-(3-methoxyphenyl)-1H-indazol-5-yl)picolinamide] | 0.1 to 1 µM | < 0.1 µM
N#Cc1cnc(C(=O)Nc2ccc3[nH]nc(-c4cnco4)c3c2)c(C2CC2)c1 [Example 312, 5-Cyano-3-cyclopropyl-N-(3-(oxazol-5-yl)-1H-indazol-5-yl)picolinamide] | 0.1 to 1 µM | < 0.1 µM
C=C(C)c1cc(C#N)cnc1C(=O)Nc1ccc2[nH]nc(C)c2c1 [Example 313, 5-Cyano-N-(3-methyl-1H-indazol-5-yl)-3-(prop-1-en-2-yl)picolinamide] | 1 to 10 µM | 0.1 to 1 µM
Cc1c(C#N)cnc(C(=O)Nc2cc(F)c3[nH]ncc3c2)c1C [Example 314, 5-Cyano-N-(7-fluoro-1H-indazol-5-yl)-3,4-dimethylpicolinamide] | 1 to 10 µM | 0.1 to 1 µM
Cc1c(C#N)cnc(C(=O)Nc2ccc3[nH]nc(F)c3c2)c1C [Example 315, 5-Cyano-N-(3-fluoro-1H-indazol-5-yl)-3,4-dimethylpicolinamide] | 1 to 10 µM | < 0.1 µM
Cc1c(C#N)ccc(F)c1C(=O)Nc1ccc2[nH]nc(C)c2c1 [Example 316, 3-Cyano-6-fluoro-2-methyl-N-(3-methyl-1H-indazol-5-yl)benzamide] | 0.1 to 1 µM | < 0.1 µM
CSc1n[nH]c2ccc(NC(=O)c3nc(Cl)c(C#N)c(C)c3C)cc12 [Example 317, 6-Chloro-5-cyano-3,4-dimethyl-N-(3-(methylthio)-1H-indazol-5-yl)picolinamide] | < 0.1 µM | < 0.1 µM
N#Cc1cnc(C(=O)Nc2ccc3[nH]nc(-c4cnco4)c3c2)c(Cl)c1 [Example 318, 3-Chloro-5-cyano-N-(3-(oxazol-5-yl)-1H-indazol-5-yl)picolinamide] | < 0.1 µM | < 0.1 µM
Cc1cc(C#N)cnc1C(=O)Nc1ccc2[nH]nc(-c3cccc(P(C)(C)=O)c3)c2c1 [Example 319, 5-Cyano-N-(3-(3-(dimethylphosphoryl)phenyl)-1H-indazol-5-yl)-3-methylpicolinamide] | 0.1 to 1 µM | < 0.1 µM
Cc1c(C(=O)Nc2ccc3[nH]nc(Cl)c3c2)nc(Cl)c(C#N)c1C [Example 320, 6-Chloro-N-(3-chloro-1H-indazol-5-yl)-5-cyano-3,4-dimethylpicolinamide] | < 0.1 µM | < 0.1 µM
COc1nc(C(=O)Nc2ccc3[nH]nc(Cl)c3c2)c(C)c(C)c1C#N [Example 321, N-(3-Chloro-1H-indazol-5-yl)-5-cyano-6-methoxy-3,4-dimethylpicolinamide] | 0.1 to 1 µM | < 0.1 µM
COc1nc(C(=O)Nc2ccc3[nH]nc(C)c3c2)c(C)c(C)c1C#N [Example 322, 5-Cyano-6-methoxy-3,4-dimethyl-N-(3-methyl-1H-indazol-5-yl)picolinamide] | < 0.1 µM | < 0.1 µM
Cc1cc(C#N)cnc1C(=O)Nc1ccc2[nH]nc(CCCN3CCCCC3)c2c1 [Example 323, 5-cyano-3-methyl-N-(3-(3-(piperidin-1-yl)propyl)-1H-indazol-5-yl)picolinamide] | > 10 µM | > 10 µM
Cc1c(C(=O)Nc2ccc3[nH]nc(Br)c3c2)nc(Cl)c(C#N)c1C [Example 324, N-(3-Bromo-1H-indazol-5-yl)-6-chloro-5-cyano-3,4-dimethylpicolinamide] | < 0.1 µM | < 0.1 µM
Cc1nc(C(=O)Nc2ccc3[nH]nc(C)c3c2)c(C)c(C)c1C#N [Example 325, 5-Cyano-3,4,6-trimethyl-N-(3-methyl-1H-indazol-5-yl)picolinamide] | 1 to 10 µM | < 0.1 µM
Cc1c(C#N)cnc(C(=O)Nc2ccc3[nH]nc(C)c3c2)c1Cl [Example 326, 3-Chloro-5-cyano-4-methyl-N-(3-methyl-1H-indazol-5-yl)picolinamide] | 0.1 to 1 µM | < 0.1 µM
Cc1c(C(=O)Nc2ccc3[nH]nc(C4CC4)c3c2)nc(C(F)F)c(C#N)c1C [Example 327, 5-Cyano-N-(3-cyclopropyl-1H-indazol-5-yl)-6-(difluoromethyl)-3,4-dimethylpicolinamide] | < 0.1 µM | < 0.1 µM
Cc1c(C(=O)Nc2ccc3[nH]nc(C4CC4)c3c2)nc(C(F)(F)F)c(C#N)c1C [Example 328, 5-Cyano-N-(3-cyclopropyl-1H-indazol-5-yl)-3,4-dimethyl-6-(trifluoromethyl)picolinamide] | < 0.1 µM | < 0.1 µM
